Data as given in BindingDB's records for doi:10.1074/jbc.M113.457119 (Institut National De Recherche Agronomique (Inra)-Vetagro …, 2013).
Substitutions are numbered along the chain they refer to.

How the values were obtained:
Assay in all cases: VKOR Activity Assay
Conditions in all cases: pH 7.4; 37 °C
[1] = molecular target: T1, Vitamin K epoxide reductase complex subunit 1-like protein 1 (Homo sapiens, UniProt Q8N0U8)
T1 sequence (Q8N0U8 whole entry): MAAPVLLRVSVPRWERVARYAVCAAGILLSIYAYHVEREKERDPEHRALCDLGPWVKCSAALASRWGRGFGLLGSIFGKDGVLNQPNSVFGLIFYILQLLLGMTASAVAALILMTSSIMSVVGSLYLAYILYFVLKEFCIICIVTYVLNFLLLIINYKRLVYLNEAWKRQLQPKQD
Procedure: (§1) Briefly, standard reactions were performed in 200 mM Hepes buffer, pH 7.4, containing 150 mM KCl, 1 mM dithiothreitol, 0.25 to 2 g liter-1 of total proteins containing membrane VKORC1. The reaction was started by the addition of vit K1>O solution in 1% Triton X-100 and incubated at 37 °C for 30 min. […] After incubation at 37 °C for 30 min, the reaction was stopped by adding 4 ml of iced 1:1 isopropyl alcohol/hexane solution. After centrifugation at 5000 x g for 10 min, the hexane layer was removed and driedunder nitrogen. The dry residue was immediately dissolved in 0.2 ml of isopropyl alcohol, and the reaction product was analyzed by liquid chromatography-mass spectrometry.

[2] = molecular target: T2, Vitamin K epoxide reductase complex subunit 1 (Rattus norvegicus, UniProt Q6TEK4)
T2 sequence (Q6TEK4 whole entry): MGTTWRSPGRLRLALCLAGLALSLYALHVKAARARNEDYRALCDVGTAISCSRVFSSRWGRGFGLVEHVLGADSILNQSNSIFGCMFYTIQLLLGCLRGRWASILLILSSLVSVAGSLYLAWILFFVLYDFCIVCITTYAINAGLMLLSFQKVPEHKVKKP
Procedure: as §1

[3] = molecular target: T3, Vitamin K epoxide reductase complex subunit 1-like protein 1 (Rattus norvegicus, UniProt Q6TEK3)
T3 sequence (Q6TEK3 whole entry): T1 sequence (Q8N0U8 whole entry) with I112V, M119V, I143V, V144T, Q175E
Procedure: as §1

## CC(=O)C[C@H](c1ccccc1)c1c(O)c2ccccc2oc1=O [2-hydroxy-3-(3-oxo-1-phenylbutyl)-4H-chromen-4-one]
[1]
  Ki: 52 µM
[2]
  Ki: 0.6 µM
[3]
  Ki: 32.6 µM
